Assay results: the NIST ThermoML archive (doi:10.1016/j.tca.2010.07.027)
Numbers after ± are expanded uncertainties.

Experiments:
[1] = Liquid; for speed of sound / mass density: 101.33 kPa; for speed of sound: Linear variable-path acoustic interferometer; for mass density: Pycnometric method; for vapor or sublimation pressure: Closed cell (Static) method
[2] = excess molar enthalpy (molar enthalpy of mixing); xn = mol fraction of the nth substance listed; settings: 308.15 K, Liquid, 2-drop calorimeter
[3] = xn = mol fraction of the nth substance listed; settings: 308.15 K, Liquid; for speed of sound: Frequency=2 MHz, Linear variable-path acoustic interferometer

C1COCO1 [1,3-dioxolane]
speed of sound ([1]; 298.15 K): 1388 ± 3 m/s
mass density ([1]; 298.15 K): 1047.2 ± 1.1 kg/m3
vapor or sublimation pressure ([1]; 308.15 K): 21.5 ± 1.1 kPa

Cc1ccccc1N [2-methylaniline]
speed of sound ([1]; 298.15 K): 1602 ± 3 m/s
mass density ([1]; 298.15 K): 994.2 ± 1 kg/m3
vapor or sublimation pressure ([1]; 308.15 K): 0.1067 ± 0.13 kPa

Cc1ccccc1N [2-methylaniline] + C1COCO1
excess molar enthalpy ([2]; x2 = 0.0754): -0.0527 ± 0.0012 kcal/mol
excess molar enthalpy ([2]; x2 = 0.1632): -0.111 ± 0.00239 kcal/mol
excess molar enthalpy ([2]; x2 = 0.2424): -0.155 ± 0.00335 kcal/mol
excess molar enthalpy ([2]; x2 = 0.3213): -0.188 ± 0.00406 kcal/mol
excess molar enthalpy ([2]; x2 = 0.4001): -0.209 ± 0.00454 kcal/mol
excess molar enthalpy ([2]; x2 = 0.4843): -0.217 ± 0.00454 kcal/mol
excess molar enthalpy ([2]; x2 = 0.5655): -0.208 ± 0.00454 kcal/mol
excess molar enthalpy ([2]; x2 = 0.6112): -0.198 ± 0.0043 kcal/mol
excess molar enthalpy ([2]; x2 = 0.6979): -0.166 ± 0.00359 kcal/mol
excess molar enthalpy ([2]; x2 = 0.7432): -0.145 ± 0.00311 kcal/mol
excess molar enthalpy ([2]; x2 = 0.808): -0.112 ± 0.00239 kcal/mol
excess molar enthalpy ([2]; x2 = 0.8831): -0.0672 ± 0.00151 kcal/mol
excess molar enthalpy ([2]; x2 = 0.9311): -0.039 ± 0.000908 kcal/mol
excess molar enthalpy ([2]; x2 = 0.9621): -0.0207 ± 0.000526 kcal/mol
speed of sound ([3]; x2 = 0.1122): 1539 ± 3 m/s
speed of sound ([3]; x2 = 0.1891): 1526 ± 3 m/s
speed of sound ([3]; x2 = 0.2413): 1516 ± 3 m/s
speed of sound ([3]; x2 = 0.2911): 1506 ± 3 m/s
speed of sound ([3]; x2 = 0.3212): 1500 ± 3 m/s
speed of sound ([3]; x2 = 0.4011): 1484 ± 3 m/s
speed of sound ([3]; x2 = 0.4513): 1473 ± 3 m/s
speed of sound ([3]; x2 = 0.5651): 1444 ± 3 m/s
speed of sound ([3]; x2 = 0.6637): 1415 ± 3 m/s
speed of sound ([3]; x2 = 0.6989): 1404 ± 3 m/s
speed of sound ([3]; x2 = 0.7512): 1386 ± 3 m/s
speed of sound ([3]; x2 = 0.8319): 1358 ± 3 m/s
speed of sound ([3]; x2 = 0.9071): 1330 ± 3 m/s
speed of sound ([3]; x2 = 0.9713): 1306 ± 3 m/s
excess molar volume ([3]; x2 = 0.0549): -8.4e-08 ± 6e-09 m3/mol
excess molar volume ([3]; x2 = 0.1721): -2.51e-07 ± 7e-09 m3/mol
excess molar volume ([3]; x2 = 0.2239): -3.12e-07 ± 7e-09 m3/mol
excess molar volume ([3]; x2 = 0.2769): -3.75e-07 ± 7e-09 m3/mol
excess molar volume ([3]; x2 = 0.351): -4.43e-07 ± 7e-09 m3/mol
excess molar volume ([3]; x2 = 0.4217): -4.86e-07 ± 7e-09 m3/mol
excess molar volume ([3]; x2 = 0.5518): -5.12e-07 ± 7e-09 m3/mol
excess molar volume ([3]; x2 = 0.5889): -5.12e-07 ± 7e-09 m3/mol
excess molar volume ([3]; x2 = 0.6218): -4.97e-07 ± 7e-09 m3/mol
excess molar volume ([3]; x2 = 0.6831): -4.66e-07 ± 7e-09 m3/mol
excess molar volume ([3]; x2 = 0.7523): -4.07e-07 ± 7e-09 m3/mol
excess molar volume ([3]; x2 = 0.8147): -3.28e-07 ± 7e-09 m3/mol
excess molar volume ([3]; x2 = 0.8916): -2.16e-07 ± 6e-09 m3/mol
excess molar volume ([3]; x2 = 0.9407): -1.23e-07 ± 6e-09 m3/mol

CNc1ccccc1 [N-methylaniline]
speed of sound ([1]; 298.15 K): 1572 ± 3 m/s
mass density ([1]; 298.15 K): 982.4 ± 1.6 kg/m3
vapor or sublimation pressure ([1]; 308.15 K): 0.0667 ± 0.13 kPa

CNc1ccccc1 [N-methylaniline] + C1COCO1
excess molar enthalpy ([2]; x2 = 0.0853): -0.0914 ± 0.00201 kcal/mol
excess molar enthalpy ([2]; x2 = 0.1423): -0.13 ± 0.00287 kcal/mol
excess molar enthalpy ([2]; x2 = 0.2533): -0.162 ± 0.00359 kcal/mol
excess molar enthalpy ([2]; x2 = 0.3765): -0.156 ± 0.00335 kcal/mol
excess molar enthalpy ([2]; x2 = 0.4531): -0.141 ± 0.00311 kcal/mol
excess molar enthalpy ([2]; x2 = 0.5123): -0.127 ± 0.00263 kcal/mol
excess molar enthalpy ([2]; x2 = 0.5976): -0.105 ± 0.00229 kcal/mol
excess molar enthalpy ([2]; x2 = 0.6432): -0.0927 ± 0.00203 kcal/mol
excess molar enthalpy ([2]; x2 = 0.7123): -0.0749 ± 0.00165 kcal/mol
excess molar enthalpy ([2]; x2 = 0.7943): -0.0561 ± 0.00127 kcal/mol
excess molar enthalpy ([2]; x2 = 0.8543): -0.0409 ± 0.000932 kcal/mol
excess molar enthalpy ([2]; x2 = 0.8912): -0.0321 ± 0.000765 kcal/mol
excess molar enthalpy ([2]; x2 = 0.9321): -0.0223 ± 0.00055 kcal/mol
excess molar enthalpy ([2]; x2 = 0.9721): -0.00894 ± 0.000311 kcal/mol
speed of sound ([3]; x2 = 0.0415): 1521 ± 3 m/s
speed of sound ([3]; x2 = 0.1211): 1511 ± 3 m/s
speed of sound ([3]; x2 = 0.2001): 1501 ± 3 m/s
speed of sound ([3]; x2 = 0.2754): 1490 ± 3 m/s
speed of sound ([3]; x2 = 0.3512): 1477 ± 3 m/s
speed of sound ([3]; x2 = 0.4222): 1463 ± 3 m/s
speed of sound ([3]; x2 = 0.4943): 1447 ± 3 m/s
speed of sound ([3]; x2 = 0.5421): 1436 ± 3 m/s
speed of sound ([3]; x2 = 0.6213): 1415 ± 3 m/s
speed of sound ([3]; x2 = 0.7003): 1393 ± 3 m/s
speed of sound ([3]; x2 = 0.7832): 1367 ± 3 m/s
speed of sound ([3]; x2 = 0.8632): 1341 ± 3 m/s
speed of sound ([3]; x2 = 0.9011): 1329 ± 3 m/s
speed of sound ([3]; x2 = 0.9632): 1307 ± 3 m/s
excess molar volume ([3]; x2 = 0.0709): -1.8e-08 ± 6e-09 m3/mol
excess molar volume ([3]; x2 = 0.1771): -4.5e-08 ± 6e-09 m3/mol
excess molar volume ([3]; x2 = 0.2387): -6.3e-08 ± 6e-09 m3/mol
excess molar volume ([3]; x2 = 0.2958): -8e-08 ± 6e-09 m3/mol
excess molar volume ([3]; x2 = 0.3349): -8.8e-08 ± 6e-09 m3/mol
excess molar volume ([3]; x2 = 0.3916): -9.5e-08 ± 6e-09 m3/mol
excess molar volume ([3]; x2 = 0.4361): -1.02e-07 ± 6e-09 m3/mol
excess molar volume ([3]; x2 = 0.4912): -1.1e-07 ± 6e-09 m3/mol
excess molar volume ([3]; x2 = 0.5531): -1.12e-07 ± 6e-09 m3/mol
excess molar volume ([3]; x2 = 0.6272): -1.04e-07 ± 6e-09 m3/mol
excess molar volume ([3]; x2 = 0.6992): -9.3e-08 ± 6e-09 m3/mol
excess molar volume ([3]; x2 = 0.7417): -8.8e-08 ± 6e-09 m3/mol
excess molar volume ([3]; x2 = 0.8545): -5.1e-08 ± 6e-09 m3/mol
excess molar volume ([3]; x2 = 0.9213): -3e-08 ± 6e-09 m3/mol

Nc1ccccc1 [aniline]
speed of sound ([1]; 298.15 K): 1635 ± 3 m/s
mass density ([1]; 298.15 K): 1017.2 ± 1 kg/m3
vapor or sublimation pressure ([1]; 298.15 K): 0.0933 ± 0.08 kPa

Nc1ccccc1 [aniline] + C1COCO1
excess molar enthalpy ([2]; x2 = 0.0613): -0.0386 ± 0.000884 kcal/mol
excess molar enthalpy ([2]; x2 = 0.1622): -0.0988 ± 0.00215 kcal/mol
excess molar enthalpy ([2]; x2 = 0.2241): -0.131 ± 0.00287 kcal/mol
excess molar enthalpy ([2]; x2 = 0.2774): -0.156 ± 0.00335 kcal/mol
excess molar enthalpy ([2]; x2 = 0.3503): -0.184 ± 0.00406 kcal/mol
excess molar enthalpy ([2]; x2 = 0.4231): -0.203 ± 0.0043 kcal/mol
excess molar enthalpy ([2]; x2 = 0.5511): -0.215 ± 0.00454 kcal/mol
excess molar enthalpy ([2]; x2 = 0.5812): -0.214 ± 0.00454 kcal/mol
excess molar enthalpy ([2]; x2 = 0.6223): -0.209 ± 0.00454 kcal/mol
excess molar enthalpy ([2]; x2 = 0.6816): -0.195 ± 0.0043 kcal/mol
excess molar enthalpy ([2]; x2 = 0.7519): -0.171 ± 0.00359 kcal/mol
excess molar enthalpy ([2]; x2 = 0.8127): -0.14 ± 0.00311 kcal/mol
excess molar enthalpy ([2]; x2 = 0.8928): -0.0887 ± 0.00196 kcal/mol
excess molar enthalpy ([2]; x2 = 0.9514): -0.0435 ± 0.001 kcal/mol
speed of sound ([3]; x2 = 0.0812): 1587 ± 3 m/s
speed of sound ([3]; x2 = 0.1413): 1576 ± 3 m/s
speed of sound ([3]; x2 = 0.2212): 1557 ± 3 m/s
speed of sound ([3]; x2 = 0.2916): 1539 ± 3 m/s
speed of sound ([3]; x2 = 0.3488): 1523 ± 3 m/s
speed of sound ([3]; x2 = 0.4621): 1489 ± 3 m/s
speed of sound ([3]; x2 = 0.5219): 1470 ± 3 m/s
speed of sound ([3]; x2 = 0.5928): 1447 ± 3 m/s
speed of sound ([3]; x2 = 0.6414): 1431 ± 3 m/s
speed of sound ([3]; x2 = 0.7131): 1406 ± 3 m/s
speed of sound ([3]; x2 = 0.8001): 1374 ± 3 m/s
speed of sound ([3]; x2 = 0.8715): 1347 ± 3 m/s
speed of sound ([3]; x2 = 0.9213): 1327 ± 3 m/s
speed of sound ([3]; x2 = 0.9711): 1307 ± 3 m/s
excess molar volume ([3]; x2 = 0.0789): -1.34e-07 ± 6e-09 m3/mol
excess molar volume ([3]; x2 = 0.1132): -1.88e-07 ± 6e-09 m3/mol
excess molar volume ([3]; x2 = 0.2204): -3.3e-07 ± 7e-09 m3/mol
excess molar volume ([3]; x2 = 0.3111): -4.28e-07 ± 7e-09 m3/mol
excess molar volume ([3]; x2 = 0.4281): -4.97e-07 ± 7e-09 m3/mol
excess molar volume ([3]; x2 = 0.4916): -5.16e-07 ± 7e-09 m3/mol
excess molar volume ([3]; x2 = 0.523): -5.17e-07 ± 7e-09 m3/mol
excess molar volume ([3]; x2 = 0.5999): -4.93e-07 ± 7e-09 m3/mol
excess molar volume ([3]; x2 = 0.6342): -4.77e-07 ± 7e-09 m3/mol
excess molar volume ([3]; x2 = 0.7114): -4.18e-07 ± 7e-09 m3/mol
excess molar volume ([3]; x2 = 0.8202): -2.94e-07 ± 7e-09 m3/mol
excess molar volume ([3]; x2 = 0.8913): -1.9e-07 ± 6e-09 m3/mol
excess molar volume ([3]; x2 = 0.9233): -1.38e-07 ± 6e-09 m3/mol
excess molar volume ([3]; x2 = 0.9718): -5.25e-08 ± 6.1e-09 m3/mol
